Source: patent publication US6391908B1, “Oxime amide indole type sPLA2 inhibitors” (Eli Lilly and Company, priority 1998, dated 2002)
pIC50: −log10 of the molar value.

Biological target: T1, recombinant human secreted phospholipase A2 (Homo sapiens, UniProt P14555)
T1 sequence (P14555 21-144): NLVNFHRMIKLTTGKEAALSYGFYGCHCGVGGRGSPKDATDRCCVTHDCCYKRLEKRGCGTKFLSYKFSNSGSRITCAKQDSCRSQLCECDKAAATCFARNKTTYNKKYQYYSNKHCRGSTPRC
Assay: chromogenic assay for inhibitors of recombinant human secreted phospholipase A2
Type: biochemical
From the text: The following chromogenic assay procedure was used to identify and evaluate inhibitors of recombinant human secreted phospholipase A2. The assay described herein has been adapted for high volume screening using 96 well microtiter plates. A general description of this assay method is found in the article, “Analysis of Human Synovial Fluid Phospholipase A2 on Short Chain Phosphatidylcholine-Mixed Micelles: Development of a Spectrophotometric Assay Suitable for a Microtiterplate Reader”, by Laure J. Reynolds, Lori L. Hughes, and Edward A Dennis, Analytical Biochemistry, 204, pp. 190-197, 1992 (the disclosure of which is incorporated herein by reference): […]
A measured volume of racemic dipheptanoyl thio PC supplied in chloroform at a concentration of 100 mg/ml is taken to dryness and redissolved in 10 millimolar TRITON X-100™ nonionic detergent aqueous solution. […]
5. Read absorbance of wells at 405 nanometers with an automatic plate reader.
All compounds were tested in triplicate. […] Compounds initially found to be active were reassayed to confirm their activity and, if sufficiently active, IC50 values were determined. […] In all cases, % inhibition measured at 405 nanometers generated by enzyme reactions containing inhibitors relative to the uninhibited control reactions was determined. […] IC50 were determined by plotting log concentration versus inhibition values in the range from 10-90% inhibition.

In the case of CCc1c(/C(=N/O)C(N)=O)c2c(OCC(=O)O)cccc2n1Cc1ccccc1 [Example 1], the “activity in inhibiting sPLA2 (in words)” value was “highly active” and the pIC50 (diheptanoyl thio-PC substrate, pH 7.5, 40° C. for 30 minutes, absorbance at 405 nanometers, read-out: Inhibition of human secreted PLA2 IC50 ± mean deviation (3-4 tests)) was 7.31.
